Where two headings read alike, the source gives them in different places.
What was measured:
CYP450 2C9 = CYP450 2C9 (Homo sapiens, UniProt P11712); experiment: CYP450 panel, 2C9; details: 10 μM; substrate Diclofenac
[1] = Metabolite ID study, dog hepatocytes; type: in vitro ADME; details: 10 uM compound 9, T=60 min
Procedure: Animal Studies: Compound 9 was tested using six species hepatocytes in a metabolite ID study (T=60 min).
Cryopreserved hepatocytes from a selected species were thawed and incubated in duplicate with 10 uM compound 9 in Krebs-Henseleit buffer. […] Viability of hepatocytes was >70% after thawing.
(Eppendorf 5804R). […] The disappearance of the parent compound was determined, and the formation of metabolites was evaluated. Metabolites present at >1% of total compound related material (based on peak area) were identified by interpretation of the LC-MS/MS data.
MS settings were optimized for the flow rate. Full scan spectra were acquired in combination with data dependent MS2.
The spectra obtained from all samples were screened for the presence of m/z values that are absent in the blank incubations (incubations with hepatocytes without compound and with vehicle control, and incubations of compound in buffer without hepatocytes). T=60 min incubations were used as an initial screening. All possible metabolites observed were semi-quantified by MS response (peak area). MS2 spectra were interpreted to determine possible location of the metabolism reaction. The presence of metabolites identified was compared across the selected species.

[2] = Pharmacokinetics, single dose, 2-hour tissue levels in Colon26 tumor bearing mice; type: in vivo; details: female, athymic BALB/c nude or BALB/c, mouse, po, single dose 100 mg/kg p.o., 2-hour post dose
Procedure: Female mice (either athymic BALC/c nude, or BALB/c mice) were inoculated with a single subcutaneous injection of 0.2 ml of mouse Colon-26 cell suspension (1×10^5 cells per animal) in the inguinal region. Colon26 (C26) tumor bearing mice received a single dose (3 mice/treatment) of vehicle (10% DMSO/90% [20% SBE-β-CD in saline], pH 5) containing compounds at 100 mg/kg by gavage (p.o.) and 2-hour post dose humanely euthanized.
Blood was obtained through cardiac puncture into K+EDTA tubes, mixed by inversion and centrifuged to obtain the plasma. Tissues were excised, cleaned of surrounding tissues. All samples immediately snap frozen in liquid N2 prior to LC-MS/MS analysis (using Waters HSS T3 2.1×50 mm (1.8 um) LC column, and an API-6500 Electrospray MS unit).

CYP450 2C8 = molecular target: T1, CYP450 2C8 (Homo sapiens, UniProt P10632); experiment: CYP450 panel, 2C8; details: 10 μM; substrate amodiaquine
T1 sequence (P10632 1-490): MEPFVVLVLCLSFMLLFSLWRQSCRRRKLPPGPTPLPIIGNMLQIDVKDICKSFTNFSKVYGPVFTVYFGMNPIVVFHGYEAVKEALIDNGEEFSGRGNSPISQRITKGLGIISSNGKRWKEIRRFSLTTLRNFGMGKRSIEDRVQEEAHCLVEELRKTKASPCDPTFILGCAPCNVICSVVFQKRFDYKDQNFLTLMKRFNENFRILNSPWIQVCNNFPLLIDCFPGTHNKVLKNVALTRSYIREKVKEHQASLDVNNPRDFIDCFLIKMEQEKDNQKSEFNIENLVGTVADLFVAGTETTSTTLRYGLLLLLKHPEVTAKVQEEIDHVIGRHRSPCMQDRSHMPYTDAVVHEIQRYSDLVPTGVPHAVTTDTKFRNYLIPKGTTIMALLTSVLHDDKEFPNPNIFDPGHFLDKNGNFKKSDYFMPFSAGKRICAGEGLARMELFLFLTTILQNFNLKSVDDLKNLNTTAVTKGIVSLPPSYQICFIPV

CYP450 2B6 = molecular target: T2, CYP450 2B6 (Homo sapiens, UniProt P20813); experiment: CYP450 panel, 2B6; details: 10 μM; substrate bupropion
T2 sequence (P20813 1-491): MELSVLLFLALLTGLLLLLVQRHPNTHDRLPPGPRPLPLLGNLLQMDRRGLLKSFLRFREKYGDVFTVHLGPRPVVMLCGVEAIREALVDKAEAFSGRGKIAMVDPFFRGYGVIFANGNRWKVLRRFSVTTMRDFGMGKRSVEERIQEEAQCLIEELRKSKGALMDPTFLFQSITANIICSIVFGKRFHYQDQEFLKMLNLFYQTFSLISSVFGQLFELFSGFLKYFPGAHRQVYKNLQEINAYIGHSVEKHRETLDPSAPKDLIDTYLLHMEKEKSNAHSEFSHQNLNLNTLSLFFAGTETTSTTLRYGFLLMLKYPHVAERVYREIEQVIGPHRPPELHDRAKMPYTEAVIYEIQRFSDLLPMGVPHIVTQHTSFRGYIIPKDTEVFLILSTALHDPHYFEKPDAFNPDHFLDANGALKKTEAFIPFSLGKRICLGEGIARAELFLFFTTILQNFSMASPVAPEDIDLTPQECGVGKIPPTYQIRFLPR

CYP450 1A2 = molecular target: T3, CYP450 1A2 (Homo sapiens, UniProt P05177); experiment: CYP450 panel, 1A2; type: in vitro ADME; details: 10 μM; substrate phenacetin
T3 sequence (P05177 1-516): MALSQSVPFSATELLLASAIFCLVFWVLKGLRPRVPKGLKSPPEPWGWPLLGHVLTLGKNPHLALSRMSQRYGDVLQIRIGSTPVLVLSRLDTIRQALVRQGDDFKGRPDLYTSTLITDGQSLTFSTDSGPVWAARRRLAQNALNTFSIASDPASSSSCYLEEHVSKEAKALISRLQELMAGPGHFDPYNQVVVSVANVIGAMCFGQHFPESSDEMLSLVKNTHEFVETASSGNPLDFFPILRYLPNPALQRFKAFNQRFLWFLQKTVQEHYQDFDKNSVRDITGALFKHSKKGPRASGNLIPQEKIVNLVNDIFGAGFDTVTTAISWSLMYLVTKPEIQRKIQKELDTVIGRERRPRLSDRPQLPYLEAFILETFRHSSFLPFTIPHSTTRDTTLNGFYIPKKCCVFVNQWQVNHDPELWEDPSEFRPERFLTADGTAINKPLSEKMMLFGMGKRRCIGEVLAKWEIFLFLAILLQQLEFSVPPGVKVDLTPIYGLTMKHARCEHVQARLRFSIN

[3] = tested on: A549 CRAF BP (MEK phosphorylation); experiment: A549-CRAF BP 100 nM, 2 h (pMEK); type: cell-based; details: Homo sapiens, A549, 2 h, phospho:total ratio normalized to DMSO control
Summary of the method: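 Cells treated in duplicate for 2 h with compound, lysed and protein-normalised (1 mg/mL pERK, 1.5 mg/mL pMEK). Quantitative capillary Western; phospho/total protein ratio normalised to DMSO.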

CYP450 2C9, sequence (P11712 whole entry): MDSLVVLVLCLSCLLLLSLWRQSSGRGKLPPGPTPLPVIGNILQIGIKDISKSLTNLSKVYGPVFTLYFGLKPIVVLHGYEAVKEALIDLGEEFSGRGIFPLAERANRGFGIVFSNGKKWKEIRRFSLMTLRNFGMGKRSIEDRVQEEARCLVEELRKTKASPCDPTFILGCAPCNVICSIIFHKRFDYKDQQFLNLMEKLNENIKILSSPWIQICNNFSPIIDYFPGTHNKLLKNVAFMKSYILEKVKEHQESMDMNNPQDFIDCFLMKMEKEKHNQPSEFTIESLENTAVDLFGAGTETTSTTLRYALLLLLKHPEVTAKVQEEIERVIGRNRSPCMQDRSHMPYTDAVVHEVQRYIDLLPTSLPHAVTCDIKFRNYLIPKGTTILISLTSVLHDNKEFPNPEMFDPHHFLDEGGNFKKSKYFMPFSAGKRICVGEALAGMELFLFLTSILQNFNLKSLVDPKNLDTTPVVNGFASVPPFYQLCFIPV

Structure (SMILES)	2C9* (CYP450 2C9)	% of total compound related material based on peak area, Dog [1] [%]	concentration at 2 h ([2]; liver, read-out: Liver) [ng/g]	concentration at 2 h ([2]; muscle, read-out: Muscle) [ng/g]	concentration at 2 h ([2]; plasma, read-out: Plasma) [ng/mL]	concentration at 2 h ([2]; tumor, read-out: Tumor) [ng/g]	2C8* (CYP450 2C8)	2B6* (CYP450 2B6)	1A2* (CYP450 1A2)	activity at 0.1 µM [3] [%]
CNS(=O)(=O)Nc1cccc(Cc2c(CN(C)C)c3ccc(OC(=O)N(C)C)cc3oc2=O)c1F [Compound 9]	6.8	96	1260	363	407	1350	4.0	14.8	4.8	44.9
Cn1cnc2c(F)c(Nc3ccc(Br)cc3Cl)c(C(=O)NOCCO)cc21 [Reference 1, Selumetinib, reference compound]	14.1	–	–	–	–	–	18.9	30.2	8.3	–
CNS(=O)(=O)Nc1nccc(Cc2c(C)c3ccc(Oc4ncccn4)cc3oc2=O)c1F [Reference 2, reference compound]	–	–	1990	550	5670	819	–	–	0.8	–

From US20250270180A1, “MEK INHIBITORS AND THERAPEUTIC USES THEREOF” (Immuneering Corporation, priority 2020, published 2025)
